# Test system: Epidermophyton floccosum
# Experiment: Broth dilution anti-fungal susceptibility assay (NCCLS M38-A), MIC
# Format: cell-based
# Protocol: M. oleifera was grown and collected from Taichung, Taiwan. The seeds were de-hulled and the seed kernels dried at 100° C. for 24 h before extraction. The leaves were freshly harvested from M. oleifera trees of at least one-year-old and immediately air-dried. All materials were lyophilized and powdered before experiments. The dermatophytes used in this study were obtained from the Food Industry Research and Development Institute (FIRDI) in Taiwan. Trichophyton rubrum (BCRC 32805), Trichophyton mentagrophytes (BCRC 32066), Epidermophyton floccosum (BCRC 30531) and Microsporum canis (BCRC 30541) were maintained by monthly sub-culturing on Sabouraud dextrose agar (SDA) at 28° C.
# The anti-fungal assays followed the protocol (document M38-A) of The National Committee for Clinical Laboratory Standards (NCCLS) in the USA. The protocol is a standard method for broth dilution anti-fungal susceptibility testing of filamentous fungi. 100× of the drug (such as ketoconozole; the MICs of this agent tested on the fungi described above were from 0.125 μg/ml to 12.5 μg/ml ) used for the control experiment. […] The minimal inhibitory concentration (MIC), which is defined as the lowest concentration of an anti-microbial agent preventing the visible growth of a microorganism in an agar or broth dilution susceptibility test (numerical score 0), was determined for each test sample.
compound,measurement,value
"CC(=O)N1CCN(c2ccc(OCC3COC(Cn4ccnc4)(c4ccc(Cl)cc4Cl)O3)cc2)CC1 (stereo not shown) [ketoconozole, ketoconazole]",MIC (text comparison ketoconozole vs EOF),0.125 ˜ig/ml

# From patent publication US7404975B2, “Moringa crude extracts and their derived fractions with antifungal activities” (Academia Sinica, priority 2006, dated 2008)
